{"source": "patent US20250018030A1", "about": "“PHARMACEUTICAL COMPOSITION FOR PROMOTING CANCER IMMUNOTHERAPY AND METHOD FOR PROMOTING CANCER IMMUNOTHERAPY” (China Medical University, priority 2023, published 2025)", "key": {"Tc1 cells [1]": {"system": "Tc1 cells", "test": "Intracellular cytokine staining / flow cytometry of genipin-treated skewed Tc1 cells", "format": "cell-based, Mouse", "conditions": "added to genipin-treated Tc1 cells; FIG. 2R-2S", "procedure": "Mouse lymph nodes and spleens were harvested, and naïve CD4 or CD8 T cells isolated via magnetic bead separation (STEMCELL Technologies) and activated in α-CD3 (10 μg/ml) and α-CD28 (1 μg/ml) pre-coated 96-well plates. Skewing conditions were as follows: Th1 cells/Tc1 cells ([…] 10 μ/ml α-IL-4), Th2 cells/Tc2 cells (20 ng/ml IL-4 and 10 μ/ml α-IFN-γ), Th17 cells/Tc17 cells (20 ng/ml IL-6, 1.25 ng/ml […], 20 ng/ml IL-1β, 20 ng/ml IL-23, 10 μg/ml α-IFN-γ and 10 μg/ml α-IL-4), and Treg cells (5 ng/ml TGF-β, 10 μg/ml α-IFN-γ and 10 μg/ml α-IL-4) in the indicated medium. Cells were cultured for 4-5 days followed by treatment with genipin (3.125 μM, 6.25 μM, 12.5 μM) or DMSO for 12-16 hours.\nMonoclonal antibodies were purchased from BD Biosciences or eBioscience. For intracellular cytokine staining (ICS), cells were first restimulated by PMA/ionomycin for 5 hours in the presence of GolgiStop (BD Biosciences), followed by surface epitope staining markers before being fixed/permeabilized (BD Cytofix/Cytoperm™) and stained with antibodies targeting intracellular antigens. Cells were finally fixed with 1.5% formaldehyde for 10 minutes at room temperature and analyzed on a FACSVerse flow cytometer (BD Bioscience). Data were analyzed using FlowJo software (Tree Star Inc.)."}, "Tc1 cells [2]": {"system": "Tc1 cells", "test": "Metabolic assays (Seahorse ECAR/OCR, mitochondrial pyruvate and acetyl CoA) in Tc1 cells", "format": "cell-based, Mouse", "conditions": "UK5099 40 μM added to genipin-treated Tc1 cells; FIG. 2G-2L", "procedure": "The real-time extracellular acidification rate (ECAR) and oxygen consumption rate (OCR) were measured using a Seahorse XF24 analyzer (Seahorse Bioscience), within XF Glycolysis Stress and XF Cell Mito Stress Test kits used to assess glycolysis and oxidative phosphorylation. 5×10^5 cells exposed to the indicated treatments were plated in an XF-24 microplate coated with Cell-Tak (Corning) one day before the assay. ECAR and OCR were measured after metabolic manipulations by the addition of oligomycin, carbonyl cyanide-p-trifluoromethoxy-phenylhydrazone (FCCP), 2-deoxyglucose (2-DG) and rotenone/anti-mycin A (R/A). Calculations were conducted with Agilent Seahorse Wave Software for Agilent Seahorse XF analyzers (Seahorse Bioscience). For isolation of mitochondria, Tc1 cells were frozen and thawed to weaken the membranes and resuspended in Reagent A of a mitochondria isolation kit (ab110170, Abcam), before being homogenized and centrifuged at 1,000×g for 10 minutes at 4° C. Supernatant was saved (SN #1) and the pellet resuspended in Reagent B. After homogenization and centrifugation, supernatant was saved (SN #2). SN #1 and SN #2 were mixed thoroughly and centrifuged at 12,000×g for 15 minutes at 4° C. The pellet was collected in Reagent C supplemented with protease inhibitors and was used for the pyruvate and acetyl COA assays. Briefly, the mitochondrial pyruvate and acetyl CoA levels in the Tc1 cells were assessed using a commercial Pyruvate Assay Kit (ab65342, Abcam) and PicoProbe Acetyl COA Assay Kit (ab87546, Abcam) according to the manufacturer's instructions."}}}
{"smiles": "N#C/C(=C\\c1cn(-c2ccccc2)c2ccccc12)C(=O)O", "note": "[UK5099]", "values": [{"measurement": "T-bet expression in genipin-treated (UCP2-deprived) Tc1 cells, effect of added inhibitor", "setting": "Tc1 cells [1]", "value": "blocked the positive regulation of T-bet"}, {"measurement": "Genipin-driven Tc1 effects (mitochondrial acetyl CoA, mitochondrial pyruvate, histone H3 acetylation, H3K9 acetylation, OCR, IFN-γ), effect of added inhibitor", "setting": "Tc1 cells [2]", "value": "could be reversed"}]}
